In one series the test system is human platelets. As to the kind of experiment: Platelet aggregation of human citrated platelet-rich plasma induced by arachidonic acid (turbidimetric). It counts as cell-based. The protocol:
The human blood samples were obtained from adult volunteers, who abstained from the use of drugs or other substances that could interfere with the experiment for at least 15 days prior. […] The platelet rich (PRP) and poor (PPP) plasma were prepared by differential centrifugation and platelet aggregation was monitored using the turbidimetric method described by Born and Cross with an aggregometer 4-Pack® (Helena Laboratories, Beaumount, TX, USA). Different concentrations of the synthetic derivatives and the vehicle (DMSO 1%) were pre-incubated for 2 min before addition of the agonists (500 μM arachidonic acid and 5 μg/mL collagen). The platelet aggregation tests were performed in triplicate and the data were statistically analyzed.

A further series has as its system PGE2 production. In words: Measurement of plasma PGE2 levels by EIA in platelet-rich plasma. The following applies: human platelet-rich plasma. It counts as cell-based. Here is the method: The stable direct metabolite of PGE2, 13,14-dihydro-15-keto-Prostaglandin E2, is a known marker of the COX-1 activity. By the measurement of total levels of this PGE2 metabolite in human platelet-rich plasma, we evaluated the feasibility of antiplatelet N,N'-disubstituted thioureas to inhibit COX-1 activity in healthy platelets (Table 2).
Plasma samples containing 100 μM of each thiourea with antiplatelet activity were used to determine the concentrations of […], an index of in vitro COX-1 activity. Briefly, ozagrel (3 μL, 100 μM) were added to stop TXS activity and the aggregation were triggered with 10 μL of arachidonic acid (500 μM) in PRP samples containing each active derivative (100 μM) under stir conditions. After five minutes the suspensions were mixed with indomethacin (3 μL, 10 mM) stop-solution. By sonication for 1 min, platelets were disrupted and purification step were performed according to the manufacturer’s instructions (Cayman Chemical Co.). Plasma levels of PGE2 were measured in duplicate by competitive immunoassay using commercially available kits for EIA (PGE2 EIA Kit, Cayman Chemical Co.) according to the manufacturer’s instructions. A threshold of 25.75 ng/mL was defined as control plasma levels of PGE2 after platelet disrupture.

For another series, the system named is TXB2 production. In words: Measurement of plasma TXB2 levels by EIA in platelet-rich plasma. It counts as cell-based. Conditions: for inhibition at 100 µM: Homo sapiens, Platelet. Here is the method:
Thromboxane B2 (TXB2), a stable TXA2 metabolite, is widely used as a prognostic risk marker of platelet activation in cardiovascular disease, which is closely related to COX-1 and Thromboxane Synthetase activity. Thus, the plasma levels of this metabolite were measured using an enzyme immunoassay (EIA) as described in the Experimental Section.
Plasma samples containing 100 μM of each thiourea with antiplatelet activity were used to determine the concentrations of thromboxane B2, an index of in vitro COX-1 activity. Briefly, 10 μL of arachidonic acid (500 μM) were added to platelet-rich plasma samples containing each active derivative (100 μM) under stir conditions. After five minutes the suspensions were mixed with 3 μL Indomethacin (10 mM) stop-solution. By sonication for 15 min, platelets were disrupted, and the resulting homogenates were centrifuged at 2000 g for 10 min to allow complete release of TXB2. Plasma levels of TXB2 were measured in duplicate by competitive immunoassay using commercially available kits from EIA Cayman (TXB2 EIA Kit, Cayman Chemical Co, Ann Arbor, MI, USA) according to the manufacturer’s instructions. A threshold of 25.75 ng/mL was defined as control plasma levels of TXB2 after platelet disrupture.

Another series has as its system Salmonella typhimurium. In words: Reverse mutagenesis to histidine prototrophy (Ames test), spot test. Conditions: without metabolic activation; 10 µM, 100 µM and 500 µM. Here is the method:
This assay was performed as described by Maron and Ames, using the histidine Salmonella typhimurium auxotroph mutant strains TA97, TA98, TA100 and the […] TA102 (Table 5).
(The Ames test uses bacterial strains that need an amino acid and regain growth without it when mutated back.)

The next series has as its system Escherichia coli. In words: SOS chromotest, spot test. It counts as cell-based. Here is the method:
The SOS chromotest (spot test) was performed according to Quillardet and Hofnung, using Escherichia coli (Table 6) strains PQ35 and PQ37. One hundred microliters of an overnight culture of the E. coli strains are diluted in 5 mL of LB medium and the culture is incubated at 37 °C in a gyratory incubator up to a concentration of 2 × 10^8 bacteria/mL. Fractions of 0.1 mL of the culture are then distributed into test tube with top agar, and the mixture is poured immediately on M63 medium plate. A sample of 10 µL of the thiourea derivatives is spotted onto the center of the plate. After overnight incubation at 37 °C, the presence of a blue ring around a zone of inhibition indicates genotoxic activity.

Series [1] can be described thus: Hemolysis assay (erythrocyte lysis). It counts as cell-based, human. Conditions: human, erythrocyte suspension, pH 7.4; 3 h incubation; derivatives and ASA at 100 μM, TRITON at 1%. The protocol:
(§1) Healthy erythrocytes were washed three times with PBS (pH 7.4) by centrifugation and suspended in the same buffer. All derivatives were incubated with the erythrocyte suspension for 3 h at 37 °C. The release of hemoglobin was determined by monitoring the optical density of the supernatant at 540 nm. The experiments were performed in triplicate and complete hemolysis (positive control) was determined using 1% Triton X-100. Hemolysis less than 10% indicated good hemocompatibility and non-toxicity of the molecules tested.

The test system of the next series is COX-1. More on the design: method as in PMID 22263894. Conditions: read-out: IC50 of non-anionic COX-1 inhibitors; cited from earlier work.
Another series has as its system erythrocytes. In words: Hemolysis assay (erythrocyte lysis). It counts as cell-based, human. Conditions: 3 h incubation; derivatives and ASA at 100 μM, TRITON at 1%. Here is the method: as §1

By inhibition is commonly meant the change of the read-out against control, counted positive when it falls. Usually melting point stands for the temperature, or range, at which the solid turns liquid.

Where two headings read alike, the source gives them in different places.

On to `S=C(NCCc1ccccc1)Nc1ccc2c(c1)OCO2` [3p, N-(3,4-Methylenedioxyphenyl)-N'-(2-phenethyl)thiourea], for which the melting point was in the range of 126 to 128 °C. Moreover, the IC50 in the series with human platelets (Homo sapiens, Platelet, read-out: IC50, concentration that caused 50% inhibition of platelet aggregation, arachidonic acid-induced (500 μM), human platelet-rich plasma) turned out to be 84.6 µM. Also, the inhibition at 100 µM in the series with human platelets (Platelet, 100 μM, healthy human platelets, read-out: Inhibition of AA-induced platelet aggregation) lay in the range of 96 to 98%. The IC50 with human platelets (read-out: IC50, concentration that caused 50% inhibition of platelet aggregation, arachidonic acid-induced (500 μM), human platelet-rich plasma) was determined as 84.5 µM. In the series with PGE2 production, the inhibition at 100 µM worked out at 7.9 ± 7.9%. The “Platelet Inhibition of TXB2 (%)” value in the series on TXB2 production (100 µM, human platelet-rich plasma) came out at 88.1 ± 5.5%. The compound also showed an inhibition at 100 µM in the series on TXB2 production of 88%. Further, in the series with Salmonella typhimurium, the “Ames Test S. typhimurium TA97” value is listed as “-”, the “Ames Test S. typhimurium TA98” value is given as “-”, the “Ames Test S. typhimurium TA100” value is “-” and the “Ames Test S. typhimurium TA102” value is given as “-”.

In the case of `CC(=O)Oc1ccccc1C(=O)O` [Aspirin, acetylsalicylic acid, reference compound], the inhibition at 100 µM with PGE2 production came to 47.5 ± 1.4%. Besides, the inhibition at 100 µM in the series on TXB2 production was 78.5 ± 5%. In the series with Salmonella typhimurium, the “Ames Test S. typhimurium TA97” value is “-”, the “Ames Test S. typhimurium TA98” value was “-”, the “Ames Test S. typhimurium TA100” value is “-” and the “Ames Test S. typhimurium TA102” value is recorded as “-”. Also, in the series with Escherichia coli, the “SOS Chromotest E. coli PQ35” value is “-”. In series [1], this compound gave a hemolysis at 3 h, 100 µM of 2%.

Consider `Nc1ccc(NC(=O)c2ccc(C(F)(F)F)cc2)nc1` [TFAP], for which the IC50 in the series on COX-1 was 0.8 µM.

In the case of Triton X-100, the Hemolysis with erythrocytes is 100%.

(Values after PMC6272548, “Synthesis and Antiplatelet Activity of Antithrombotic Thiourea Compounds: Biological and Structure-Activity Relationship Studies” (Molecules, 2015).)
